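Cultured in 96-well plates, cells were exposed to test compound for 48 hours across five concentrations. At the GI50, growth is halved.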 Activity calls are given as the source filed them. No stated cut-off is given here; in the data, active = GI50 up to about 1.1 µM and inactive = higher.

Some test systems named below: MCF7; SK-MEL-5; Hs-578T; LOX IMVI; SNB-19; SK-MEL-2; RXF 393; HCT-15; HCT-116; OVCAR-5; HOP-62; U-251; MOLT-4; OVCAR-4; MDA-MB-231; UACC-257; Malme-3M; MDA-N; SF-539; OVCAR-8.
Common to all, as to assay: NCI anticancer screen, dose series, 48 h

As for `O=C1NC(=S)N/C1=C\c1ccc(Br)s1`, the GI50 in the assay with MCF7 is > 100 µM (inactive); with SK-MEL-5 it was 39.8 µM (inactive); with Hs-578T it was 34 µM (inactive); with LOX IMVI, > 100 µM (inactive); in the assay with SNB-19, 90.2 µM (inactive); in the assay on SK-MEL-2, 99.8 µM (inactive). In addition, the GI50 is > 100 µM (inactive) in the assay on RXF 393; 91.2 µM in the assay on HCT-15; > 100 µM (inactive) in the assay on HCT-116; > 100 µM (inactive) with OVCAR-5; > 100 µM (inactive) in the assay with HOP-62; > 100 µM (inactive) with U-251. The GI50 is 21.4 µM (inactive) in the assay with MOLT-4; 53.1 µM (inactive) in the assay with OVCAR-4; > 100 µM (inactive) with MDA-MB-231; 61 µM (inactive) in the assay on UACC-257; > 100 µM (inactive) with Malme-3M; > 100 µM (inactive) in the assay on MDA-N.

For the compound `Cc1cc(S(=O)(=O)Nc2nc(N)n(-c3cnc4ccccc4n3)n2)c(S)cc1Cl`, the GI50 is > 100 µM (inactive) with MCF7; > 100 µM (inactive) in the assay on SK-MEL-5; 78.5 µM (inactive) in the assay on Hs-578T; > 100 µM (inactive) in the assay with LOX IMVI; 39.1 µM (inactive) in the assay on SNB-19; > 100 µM (inactive) with SK-MEL-2. For the same compound, the GI50 in the assay on RXF 393 was 99.1 µM (inactive); with HCT-15, above 100 µM; in the assay on HCT-116, > 100 µM (inactive); with OVCAR-5, > 100 µM (inactive); in the assay with HOP-62, 69.5 µM (inactive); with U-251, 41.9 µM (inactive). The GI50 in the assay with OVCAR-4, with MDA-MB-231, with SF-539, in the assay with OVCAR-8, in the assay with UACC-257 and in the assay on Malme-3M was > 100 µM (inactive) each time. In addition, the GI50 in the assay on MDA-N is > 100 µM (inactive).

Regarding `CC(=O)OC(C)(C)/N=N/c1ccc(Br)cc1`, the GI50 was 0.551 µM (active) in the assay with MCF7; 0.209 µM (active) in the assay with SK-MEL-5; > 53.2 µM (inactive) with Hs-578T; 3.09 µM (inactive) in the assay with LOX IMVI; > 68.2 µM (inactive) in the assay with SNB-19; > 85.7 µM (inactive) with SK-MEL-2. Moreover, the GI50 in the assay on RXF 393 is 20.6 µM (inactive); in the assay on HCT-15, 0.977 µM; in the assay with HCT-116, 0.851 µM (active); in the assay on OVCAR-5, 1.66 µM (inactive); with HOP-62, 34.3 µM (inactive); with U-251 it was 25.1 µM (inactive). The GI50 was 3.56 µM (inactive) in the assay with MOLT-4; 9.18 µM (inactive) with OVCAR-4; > 76.2 µM (inactive) in the assay with MDA-MB-231; 0.841 µM (active) in the assay with SF-539; 17.5 µM (inactive) with OVCAR-8; 5.45 µM (inactive) in the assay with UACC-257. The GI50 in the assay with Malme-3M is > 43.1 µM (inactive); with MDA-N, 0.178 µM (active).

Take `COc1cc2c3c([nH]c2c(OC)c1OC)CCN(Cc1ccccc1)C3`: the GI50 in the assay with MCF7 is 18.1 µM (inactive); with SK-MEL-5, 18.9 µM (inactive); with Hs-578T, 32.4 µM (inactive); in the assay with LOX IMVI it was 16.3 µM (inactive); in the assay on SNB-19 it was 3.07 µM (inactive); in the assay with SK-MEL-2, 22.6 µM (inactive). Further, the GI50 in the assay with RXF 393 was > 100 µM (inactive); with HCT-15 it was 31.9 µM; with HCT-116 it was 33.9 µM (inactive); in the assay on OVCAR-5, 23.8 µM (inactive); with HOP-62, 93.5 µM (inactive); with U-251, 31.8 µM (inactive). Further, the GI50 in the assay on MOLT-4 is 25.1 µM (inactive); with OVCAR-4, 64.7 µM (inactive); in the assay with MDA-MB-231, 32.8 µM (inactive); in the assay on SF-539, 17.7 µM (inactive); in the assay with OVCAR-8, > 100 µM (inactive); with UACC-257, 19.9 µM (inactive). Also, the GI50 with Malme-3M was 16.6 µM (inactive); in the assay with MDA-N, 16.9 µM (inactive).

As for `[N-]=[N+]=Nc1c(Cc2ccccc2)c(Cl)nc2ccccc12`, the GI50 was 21.3 µM (inactive) in the assay with MCF7; 15.4 µM (inactive) with SK-MEL-5; 21.3 µM (inactive) in the assay with Hs-578T; 18.4 µM (inactive) in the assay with LOX IMVI; 19.1 µM (inactive) with SNB-19; 16.6 µM (inactive) with SK-MEL-2. The GI50 is 15.7 µM (inactive) in the assay on RXF 393; 35.2 µM with HCT-15; 17.5 µM (inactive) with HCT-116; 31 µM (inactive) in the assay on OVCAR-5; 22.4 µM (inactive) with HOP-62; 28.8 µM (inactive) in the assay on MOLT-4. The GI50 is 42 µM (inactive) in the assay with OVCAR-4; 18.7 µM (inactive) in the assay with MDA-MB-231; 21.7 µM (inactive) with SF-539; 20.8 µM (inactive) in the assay with OVCAR-8; 33.5 µM (inactive) in the assay with UACC-257; 21.1 µM (inactive) with Malme-3M. The GI50 in the assay with MDA-N is 21.9 µM (inactive).

As to `O=C(O)C1C2C=CC(C2)C1c1ccccc1` (stereo not given), the GI50 with MCF7 is > 100 µM (inactive); in the assay on SK-MEL-5 it was > 100 µM (inactive); with Hs-578T it was > 100 µM (inactive); in the assay on LOX IMVI, > 100 µM (inactive); with SNB-19, > 100 µM (inactive); in the assay on SK-MEL-2 it was 31.6 µM (inactive). The GI50 with RXF 393 is > 100 µM (inactive); in the assay with HCT-15 it was above 100 µM; in the assay on HCT-116 it was > 100 µM (inactive); with OVCAR-5, > 100 µM (inactive); in the assay with HOP-62 it was > 100 µM (inactive); in the assay on U-251 it was > 100 µM (inactive). For the same compound, the GI50 in the assay with MOLT-4, with MDA-MB-231, in the assay on SF-539, in the assay on OVCAR-8, in the assay with UACC-257 and with Malme-3M was > 100 µM (inactive) in each case. The GI50 in the assay with MDA-N was > 100 µM (inactive).

As for `O=C(CSc1nc2ccc(I)cc2c(=O)n1Cc1ccccc1)NNC(=O)c1ccccc1`, the GI50 in the assay with MCF7 is 9.82 µM (inactive); in the assay with SK-MEL-5, 10.3 µM (inactive); in the assay with Hs-578T, 2.85 µM (inactive); in the assay on LOX IMVI, 22.5 µM (inactive); with SNB-19 it was 21.3 µM (inactive); in the assay with SK-MEL-2 it was 6.08 µM (inactive). The GI50 with RXF 393 is 4.73 µM (inactive); in the assay with HCT-15, 16.5 µM; in the assay with HCT-116, 19.7 µM (inactive); with OVCAR-5, 16 µM (inactive); in the assay on HOP-62 it was 8.02 µM (inactive); in the assay with U-251, 28 µM (inactive). The GI50 was 11.4 µM (inactive) with MOLT-4; 8.99 µM (inactive) in the assay on OVCAR-4; 10.5 µM (inactive) with MDA-MB-231; 2.92 µM (inactive) with SF-539; 8.3 µM (inactive) in the assay with OVCAR-8; 18 µM (inactive) with UACC-257. Also, the GI50 in the assay with MDA-N is 25.1 µM (inactive).

On to `Cc1oc2c(cc(O)c3cc(O)ccc32)c2cccc1-2`, for which the GI50 is 33.4 µM (inactive) in the assay with MCF7; > 100 µM (inactive) with SK-MEL-5; > 100 µM (inactive) in the assay with Hs-578T; > 100 µM (inactive) with LOX IMVI; > 100 µM (inactive) with SNB-19; > 100 µM (inactive) with SK-MEL-2. The GI50 in the assay with RXF 393 was > 100 µM (inactive); with HCT-15 it was above 100 µM; in the assay with HCT-116 it was > 100 µM (inactive); with OVCAR-5, > 100 µM (inactive); with HOP-62, > 100 µM (inactive); with U-251, > 100 µM (inactive). The GI50 with MOLT-4, in the assay on MDA-MB-231, with SF-539, in the assay with OVCAR-8, with UACC-257 and in the assay with Malme-3M was > 100 µM (inactive) each time. Also, in the assay on MDA-N, the GI50 is > 100 µM (inactive).

Regarding `COC(=O)C1CN=CN1CCc1ccccc1` (stereo not given), the GI50 in the assay on MCF7, in the assay on SK-MEL-5, in the assay on Hs-578T, in the assay on LOX IMVI, in the assay with SNB-19 and with SK-MEL-2 was > 100 µM (inactive) throughout. Moreover, the GI50 in the assay with RXF 393 is > 100 µM (inactive); in the assay with HCT-15 it was above 100 µM; in the assay with HCT-116 it was > 100 µM (inactive); with OVCAR-5 it was > 100 µM (inactive); with U-251, > 100 µM (inactive); in the assay on MOLT-4, > 100 µM (inactive). Further, the GI50 in the assay on OVCAR-4, with MDA-MB-231, in the assay on SF-539, with OVCAR-8, with UACC-257 and in the assay with Malme-3M was > 100 µM (inactive) in each case. Besides, in the assay on MDA-N, the GI50 is > 100 µM (inactive).

Consider `COc1ccc(C(OCC2OC(n3ccc(NC(=O)c4ccccc4)nc3=O)C(O)C2O)(c2ccccc2)c2ccccc2)cc1` (stereo not given), for which the GI50 was 2.22 µM (inactive) in the assay on MCF7; 1.91 µM (inactive) with SK-MEL-5; 2.12 µM (inactive) in the assay with Hs-578T; 3.44 µM (inactive) with SNB-19; 3.33 µM (inactive) with SK-MEL-2; 2.97 µM (inactive) with RXF 393. Also, the GI50 with HCT-15 is 1.82 µM; in the assay with HCT-116, 1.75 µM (inactive); with OVCAR-5, 2 µM (inactive); in the assay with HOP-62, 2.34 µM (inactive); with U-251 it was 1.92 µM (inactive); with MOLT-4 it was 2.1 µM (inactive). Moreover, the GI50 is 2.67 µM (inactive) with OVCAR-4; 2.13 µM (inactive) in the assay on MDA-MB-231; 2.34 µM (inactive) in the assay on SF-539; 1.78 µM (inactive) with OVCAR-8; 8.39 µM (inactive) in the assay with UACC-257; 1.89 µM (inactive) in the assay on Malme-3M. Moreover, the GI50 with MDA-N is 1.92 µM (inactive).

`N#CC1(c2ccccc2)CCN(C2(c3ccccc3)CCCCC2)CC1`: the GI50 with MCF7 was > 100 µM (inactive); in the assay on SK-MEL-5, > 100 µM (inactive); in the assay on Hs-578T, 44 µM (inactive); in the assay on LOX IMVI, > 100 µM (inactive); with SNB-19, > 100 µM (inactive); in the assay with SK-MEL-2, > 100 µM (inactive). The GI50 in the assay with RXF 393 was > 100 µM (inactive); in the assay with HCT-15, above 100 µM; in the assay on HCT-116 it was > 100 µM (inactive); in the assay on OVCAR-5, > 100 µM (inactive); in the assay with HOP-62, > 100 µM (inactive); in the assay with U-251 it was > 100 µM (inactive). Further, the GI50 is > 100 µM (inactive) in the assay with MOLT-4; > 100 µM (inactive) in the assay with OVCAR-4; > 100 µM (inactive) in the assay with MDA-MB-231; > 100 µM (inactive) in the assay on OVCAR-8; > 100 µM (inactive) in the assay on UACC-257; 8.83 µM (inactive) in the assay with Malme-3M. In addition, the GI50 in the assay with MDA-N was > 100 µM (inactive).

For the origin of these results see ChEMBL document CHEMBL1201862, “PubChem BioAssay data set” (2004).
